Entries after “also recorded” stand apart in the source; their conditions may differ. Where two headings read alike, the source gives them in different places. Where no end group is shown, it is not given here.
Assays:
avidin-agarose = assay: Avidin-agarose precipitation of fluoresceinated and biotinylated amylin substrates; format: binding; conditions: for precipitation by / binding to avidin(-agarose) of uncleaved substrate: uncleaved substrate (- IDE), 1 μM, fluorescence read-out
From the text: In previous work, we developed robust proteolytic degradation assays for Aβ [18] and glucagon on the basis of synthetic versions of these substrates containing fluorescein at the N‑terminus and biotin (in the form of Lys(Ahx-biotin)) at the C-terminus. This general approach enables a facile method for detecting hydrolysis, which we call avidin-agarose precipitation (AP). Briefly, hydrolysis can be readily quantified by removing the intact (biotinylated and fluoresceinated) substrates with avidin-agarose, then quantifying the remaining (fluoresceinated only) proteolytic fragments by fluorescence. This approach has the advantage of being readily implementable in any laboratory equipped with a fluorescence reader. Although convenient, the AP protocol requires centrifugation and liquid transfer steps that make it less amenable to high-throughput or robotized applications (Figure 1a).
Because the C-terminal portion of human amylin is the most aggregation-prone region of the peptide, we hypothesized that strong secondary structure in this area may have rendered the biotin moiety inaccessible to productive interactions with avidin. […] In one version, substrate 2 (Figure 1c; Table 1), we swapped the positions of the fluorescein and biotin groups, while in the other, substrate 3 (Figure 1d; Table 1), we maintained their placement at the N‑ and C-termini, respectively. […] On the basis of these preliminary results, we elected to use substrate 3 for downstream assay development, renaming it FrAB (fluorescein-rodent amylin-biotin). As expected, hydrolysis of FrAB could be readily monitored using the AP protocol, with hydrolysis resulting in a steady increase in fluorescence signal as a function of time in the presence of low quantities of IDE (Figure 1e).

recombinant human IDE [1] = target: T1, recombinant human IDE (Homo sapiens, UniProt P14735); assay: Fluorescence change on full cleavage by IDE; format: biochemical; set-up: made in house; conditions: complete hydrolysis by excess IDE, 1 μM substrate, before avidin-agarose precipitation
Experimental: Substrates were dissolved in DMSO as 1 mM stocks as calculated from the manufacturer-provided weight of lyophylized peptide and its MW, taking into account purity levels. […] The specific activity of recombinant IDE was verified to be within 5% of the value determined from protein concentration (quantified by nanodrop).
For fluorescence-dequenching assays, reactions were typically performed directly in low-volume 384-well microplates, and because the measurements could be monitored continuously, there was no need to stop the reactions. To that end, 3× IDE solution (10 µL) was combined with 3× compound or DMSO (10 µL) and allowed to equilibrate for ≥5 min at room temperature. Reactions were initiated by addition of 3× FrAB substrate (10 µL), typically at 100 nM final concentration. Fluorescence (λex = 336 nm, λem = 490 nm) was monitored repeatedly at frequent intervals (e.g., 30 s) on a multilabel plate reader (SpectraMAX, Molecular Devices, San Jose, CA, USA) using the default fluorescence measurement protocol.

[2] = system: insulin-degrading enzyme (IDE); conditions: cited from earlier work
From the text: Amylin is a 37-residue peptide with a highly conserved sequence that is present in all mammals. To be fully active, two major post-translational modifications are required: a C-terminal amide (Tyr37) and a disulfide bond between two cysteine residues found at positions 2 and 7 [6]. […] As is true for other amyloidogenic substrates, such as the amyloid β-protein (Aβ), it is likely that multiple amylin proteases exist that work in ... || We also developed a FRET-based fluorescence dequenching assay, which was successful in many respects, but about which some caution is warranted. First, the particular placement of the fluorescing EDANS and quenching DABCYL groups was designed to be optimal for a known cleavage site hydrolyzed by IDE [26]. This particular placement may not be ideal for other amylin proteases, depending on where they cleave the peptide. Secondly, whereas the FrAB-based AP and FP protocols both yielded kinetic parameters close to one another and also similar in magnitude to those obtained for other IDE substrat ...

[3] = system: beta-site APP-cleaving enzyme 2 (BACE2); conditions: cited from earlier work
From the text: Amylin is a 37-residue peptide with a highly conserved sequence that is present in all mammals. To be fully active, two major post-translational modifications are required: a C-terminal amide (Tyr37) and a disulfide bond between two cysteine residues found at positions 2 and 7 [6]. […] As is true for other amyloidogenic substrates, such as the amyloid β-protein (Aβ), it is likely that multiple amylin proteases exist that work in ...

[4] = Effect of avidin concentration on FP (mP) of FrAB; format: binding
From the text: To assess the suitability of FrAB to the FP protocol, we measured the degree of depolarization (measured in millipolarization units, mP) in uncleaved versus fully cleaved substrate in the absence or presence of excess avidin. […] Not only was substantially less depolarization observed with the intact substrate alone, but the depolarization was reduced even further by the addition of avidin (Figure 1g). As expected from the preceding results, hydrolysis of FrAB as a function of time could be readily monitored using the FP protocol (Figure 1h).
Avidin (and avidin-agarose) is an expensive reagent, and thus it is valuable to establish the minimum avidin/FrAB ratio necessary for reliable results. To that end, we added varying amounts of avidin to a fixed quantity (100 nM) of both cleaved and uncleaved FrAB and assessed the results using the FP protocol. […] Accordingly, we recommend that a minimum avidin/FrAB ratio of ≈10:1 be used in practice.

recombinant human IDE [5] = target: T1, recombinant human IDE; conditions: FrAB substrate, AP protocol, 1 nM IDE; mean ± SEM of four independent replications
Experimental: The specific activity of recombinant IDE was verified to be within 5% of the value determined from protein concentration (quantified by nanodrop).
To ensure homogeneity of solution concentrations, we mixed all solutions well by gentle rocking on a nutator for ≥10 min at room temp (21–23 °C), and dispensed them manually using 16-channel pipettors fitted with 20-µL FinnTip pipette tips. For experiments conducted in 384-well plates, or transfers thereto, mixing was performed by ≥3 rounds of trituration after dispensing of the final solution. […] After we carefully removed the tubes from the centrifuge to avoid disturbing the pelleted avidin-agarose, the supernatant was transferred to low-volume 384-well microplates (30 µL/well), then fluorescence (λex = 485 nm, λem = 515 nm) was read on a multilabel plate reader (SpectraMAX, Molecular Devices, San Jose, CA, USA).
(§1) For all assays, results were normalized to data from negative (0% hydrolysis, no IDE) and positive (100% hydrolysis, excess IDE) controls and, where appropriate, expressed as percent hydrolysis. In the case of AP-based assays, percent hydrolysis was a linear function of the percent maximal change in relative fluorescence (RFU; %ΔRFU) between positive and negative controls. […]

recombinant human IDE [6] = target: T1, recombinant human IDE; conditions: FrAB substrate, FP protocol (corrected), 1 nM IDE; mean ± SEM of four independent replications
Experimental: For fluorescence polarization (FP)-based assays, reactions were typically performed directly in low-volume 384-well microplates. To that end, 3× IDE solution (8 µL) was combined with 3× compound or DMSO (8 µL) and allowed to equilibrate for ≥5 min at room temperature. Reactions were initiated by addition of 3× FrAB substrate (8 µL), typically at 100 nM final concentration, except where indicated. After the appropriate incubation period, reactions were terminated by addition of 4× FP Stop Buffer (8 µL; PBS/0.05% biotin-free BSA containing a final concentration of 2 mM 1,10-phenanthroline and 10-fold molar excess avidin (monomer)), triturated ≥3 times to ensure even mixing. […] Fluorescence polarization (λex = 485 nm, λem = 515 nm) was read on a multilabel plate reader (SpectraMAX M5^e, Molecular Devices, San Jose, CA, USA) using the default fluorescence polarization protocol, with the g-factor value maintained at 1.0. high-throughput screening (HTS) being performed manually using a 16-channel pipettor.
as §1

[7] = cited from earlier work
From the text: Amylin, also known as islet amyloid polypeptide, is a peptide hormone that is stored in pancreatic beta-cells and co-secreted with insulin in response to many factors, including glucose, arginine, and fatty acids. Amylin plays a role in inhibiting glucagon secretion and delaying gastric emptying as well as modulating other aspects of food processing and satiety.

In the case of “[5-FAM]KCNTATCATQRLANFLVHSSNNFGAILSSTNVGSNTY[Lys(Ahx-biotin)]-amide (disulfide) (5-FAM N-term, Lys(Ahx-biotin) C-term amide, disulfide) [Substrate 1]”, the “precipitation by / binding to avidin(-agarose) of uncleaved substrate” value (“precipitation by / binding” below) (avidin-agarose) is reported as “biotin does not bind to avidin”, the “precipitation by / binding” value (avidin-agarose; listed as substrate 1) is reported as “could not be precipitated by avidin-agarose” and the “fluorescence increase relative to uncleaved substrate (in words)” value (recombinant human IDE [1]) is reported as “modest increase in fluorescence”.

In the case of “amylin: 37-residue pancreatic peptide hormone, also known as islet amyloid polypeptide (KCNTATCATQRLANFLVHSSNNFGAILSSTNVGSNTY; not fully specified (C-terminus, bridges); cysteine pairing not given here; UniProt P10997 34-70, looked up)”, the “hydrolysis by IDE” value [2] is given as “can be hydrolyzed” and the “hydrolysis by BACE2” value [3] is given as “can be hydrolyzed”.

For “avidin: avidin, a 64-kDa tetramer; egg white avidin [reference compound]”, the EC50 ([4]; avidin (monomer) concentration, uncleaved FrAB 100 nM, FP, n = 4 (mean ± SEM), read-out: apparent EC50 of avidin for increase in mP) was 33.5 ± 7.5 nM and the “avidin concentration at which increase in mP values reaches a plateau” value ([4]; avidin (monomer), 100 nM FrAB, FP protocol) was “≈ 1 µM”.

In the case of fluorescein-rodent amylin-biotin [FrAB], the “fluorescence of fully cleaved substrate after avidin-agarose precipitation” value (avidin-agarose; fully cleaved by IDE, 1 μM substrate, listed as substrate 3) is reported as “remained constant before and after AP; also recorded: strong fluorescence signal after precipitation”, the “precipitation by / binding” value (avidin-agarose; listed as substrate 3) is reported as “readily precipitated by avidin-agarose” and the “depolarization of light by fully cleaved substrate” value ([4]; FrAB 1 μM, fully hydrolyzed (+ IDE) vs. uncleaved, FP) is reported as “significantly more than uncleaved substrate”. For the same substance, the “effect of avidin on mP of fully cleaved substrate” value ([4]; fully cleaved FrAB, 100 nM, FP protocol) was “unaffected by avidin; also recorded: unaffected even by very high concentrations of avidin”, the kcat/KM (recombinant human IDE [5]) was “≈ 1 × 10^7 M^-1 s^-1” and the kcat/KM (recombinant human IDE [6]) was “≈ 1 × 10^7 M^-1 s^-1”.

In the case of “glucagon: peptide hormone relevant to glucose homeostasis”, the “degradation by IDE” value [2] is listed as “IDE also degrades”.

For “human amylin: aggregation-prone human form of amylin (KCNTATCATQRLANFLVHSSNNFGAILSSTNVGSNTY; not fully specified (C-terminus, bridges); cysteine pairing not given here; UniProt P10997 34-70, looked up)”, the aggregation propensity ([7]; human amylin) is given as “highly aggregation-prone”.

For “insulin: peptide hormone relevant to glucose homeostasis”, the “degradation by IDE” value [2] is listed as “IDE also degrades”.

In the case of “rodent amylin: rodent amylin, far less prone to aggregation than the human peptide”, the aggregation propensity ([7]; rodent amylin vs. human peptide) is given as “far less prone to aggregation and secondary structure formation than the human peptide”.

From publication PMC7711817, “Quantitative, High-Throughput Assays for Proteolytic Degradation of Amylin” (Methods and Protocols, 2020)
